Results published in the supplement of paper PMC11451515.

System: SEM cells
Assay: cell viability relative to DMSO control; higher = less cytotoxic
Settings: 48 h
How it was run: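 Leukemia cells (NOMO1 or SEM, 500 cells/well; P12-Ichikawa, 1000 cells/well) were seeded in 5 μl in 1536-well plates after at least four passages of adaptation to each medium. They received library compounds in DMSO by pin dosing, 11 threefold points from 47 μM to 0.79 nM. Luminescence with CellTiter-Glo One was read after 48 h at 37°C. Viability is stated per plate relative to DMSO wells, with cell-free wells as background.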

[1] = HPLM + 10% dialyzed FBS, 0.000781 µM
[2] = HPLM + 10% dialyzed FBS, 0.00234 µM
[3] = HPLM + 10% dialyzed FBS, 0.00702 µM
[4] = HPLM + 10% dialyzed FBS, 0.0211 µM
[5] = HPLM + 10% dialyzed FBS, 0.0632 µM
[6] = HPLM + 10% dialyzed FBS, 0.19 µM
[7] = HPLM + 10% dialyzed FBS, 0.569 µM
[8] = HPLM + 10% dialyzed FBS, 1.71 µM
[9] = HPLM + 10% dialyzed FBS, 5.12 µM
[10] = HPLM + 10% dialyzed FBS, 15.4 µM
[11] = HPLM + 10% dialyzed FBS, 46.1 µM
[12] = RPMI 5 mM glucose + 10% FBS, 0.000781 µM
[13] = RPMI 5 mM glucose + 10% FBS, 0.00234 µM
[14] = RPMI 5 mM glucose + 10% FBS, 0.00702 µM
[15] = RPMI 5 mM glucose + 10% FBS, 0.0211 µM
[16] = RPMI 5 mM glucose + 10% FBS, 0.0632 µM
[17] = RPMI 5 mM glucose + 10% FBS, 0.19 µM
[18] = RPMI 5 mM glucose + 10% FBS, 0.569 µM
[19] = RPMI 5 mM glucose + 10% FBS, 1.71 µM
[20] = RPMI 5 mM glucose + 10% FBS, 5.12 µM
[21] = RPMI 5 mM glucose + 10% FBS, 15.4 µM
[22] = RPMI 5 mM glucose + 10% FBS, 46.1 µM
[23] = RPMI 5 mM glucose + 10% dialyzed FBS, 0.000781 µM
[24] = RPMI 5 mM glucose + 10% dialyzed FBS, 0.00234 µM
[25] = RPMI 5 mM glucose + 10% dialyzed FBS, 0.00702 µM
[26] = RPMI 5 mM glucose + 10% dialyzed FBS, 0.0211 µM
[27] = RPMI 5 mM glucose + 10% dialyzed FBS, 0.0632 µM
[28] = RPMI 5 mM glucose + 10% dialyzed FBS, 0.19 µM
[29] = RPMI 5 mM glucose + 10% dialyzed FBS, 0.569 µM
[30] = RPMI 5 mM glucose + 10% dialyzed FBS, 1.71 µM
[31] = RPMI 5 mM glucose + 10% dialyzed FBS, 5.12 µM
[32] = RPMI 5 mM glucose + 10% dialyzed FBS, 15.4 µM
[33] = RPMI 5 mM glucose + 10% dialyzed FBS, 46.1 µM

Structure (SMILES)	cell viability [1] [%]	cell viability [2] [%]	cell viability [3] [%]	cell viability [4] [%]	cell viability [5] [%]	cell viability [6] [%]	cell viability [7] [%]	cell viability [8] [%]	cell viability [9] [%]	cell viability [10] [%]	cell viability [11] [%]	cell viability [12] [%]	cell viability [13] [%]	cell viability [14] [%]	cell viability [15] [%]	cell viability [16] [%]	cell viability [17] [%]	cell viability [18] [%]	cell viability [19] [%]	cell viability [20] [%]	cell viability [21] [%]	cell viability [22] [%]	cell viability [23] [%]	cell viability [24] [%]	cell viability [25] [%]	cell viability [26] [%]	cell viability [27] [%]	cell viability [28] [%]	cell viability [29] [%]	cell viability [30] [%]	cell viability [31] [%]	cell viability [32] [%]	cell viability [33] [%]
O=C(O)CCC1CCC(c2cc(F)ccc2F)([S+](=O)([O-])c2ccc(Cl)cc2)CC1 (configuration not stated)	105	93.5	110	114	115	115	109	117	119	125	116	104	110	117	126	112	114	114	104	110	113	81.6	103	105	115	122	122	128	109	116	123	111	106
C[C@]12COC(=O)C[C@@H]1CC[C@@H]1[C@@H]2CC[C@@]2(C)[C@H]1CC[C@]2(C)O	96.4	97.7	95.7	105	94	93.3	85.5	96.6	101	86.3	88.4	105	110	104	100	106	106	105	101	95.9	90	78.4	98.2	109	104	111	121	109	101	92	101	89.5	78.6
CNc1nc(Nc2ccc(C(=O)N3CCOCC3)cc2OC)ncc1Cl	–	–	–	–	–	–	–	–	–	–	–	107	120	101	104	113	107	70.9	128	97.9	92.4	42.2	123	106	118	111	120	114	78.5	114	131	105	68.8
Cc1nc2cnc3ccc(C#Cc4cccnc4)cc3c2n1-c1ccc(C(C)(C)C#N)cc1	65.5	72.3	84.3	86.5	45.2	43.3	28.4	34	32.3	33.2	17	87.7	104	104	110	56.2	60.2	47.8	34.2	31	32.4	16.2	69.8	82.4	84.3	78.4	50.4	48.9	44.2	37.2	31.6	32.7	15.7
CC[C@H](NC1=C2N=C[NH]C2=NC=N1)C/3=N/C4=C(C(=CC=C4)F)C(=O)N3C5=CC=CC=C5	94.9	118	133	120	114	97.2	87.4	106	81.7	73.6	52.1	79.2	94.8	112	105	111	108	88.2	88.9	84.5	57.6	53.1	90.2	110	132	120	116	84.2	116	110	92.8	80.1	57.3
Cc1nn(Cc2ccccc2Cl)c(C)c1CN(C)CC(O)COc1ccc(Cl)cc1 (configuration not stated)	95.7	98.1	103	119	100	102	109	104	105	41.8	46.9	100	109	93	112	110	116	107	114	105	41.1	41.4	109	91.8	107	103	113	89.9	97.2	101	95.8	39.2	38.3
